From patent US20110009616A1, “AGENT FOR PREVENTING ARTERIOSCLEROSIS” (priority 2006, published 2011)
pIC50: −log10 of the molar value.

Target: bLOX-1 (Bos taurus, UniProt P79391)
Assay: Plate assay: binding of oxidized LDL to recombinant bLOX-1 (Test Example 1)
Set-up: 6xHis (N); made in house; host or cells: E. coli; species or system bovine
Protocol: A LOX-1 antagonist activity of the agent for preventing arteriosclerosis obtained in the above-mentioned Example was evaluated on a LOX-1 binding inhibition rate to oxidized LDL using a recombinant LOX-1 protein obtained from E. coli.
As for the recombinant LOX-1, in cDNA of LOX-1 derived from bovine (bLOX-1) or derived from human (hLOX-1), a sequence to the C-terminal removing a transmembrane region was inserted into a pQE30 vector having a 6-histidine tag sequence (6×His) at the N-terminal (manufactured by Qiagen) so as to have a sequence aligned to a translation frame. The vector was transformed into E. coli able to be controlled by T5 promoter and the expression of each LOX-1 was induced under induction of 1 m M of isopropyl-1-thio-β-D-[…] (IPTG). After the induction of each expression at 37° C. for 3 hours, since the recombinant LOX-1 was obtained from an insoluble fraction, E. coli was lysed in a buffer containing 6 M guanidine hydrochloride and purified by affinity column chromatography using a Ni-NTA agarose column (manufactured by Qiagen) as the marker of 6×His (solvent: phosphoric acid buffer). Furthermore, each of the elution fractions containing LOX-1 was dialyzed in a 20 mM tris buffer (pH 9.0) and a 8M urea containing buffer, applied to a HiTrap Q column, an anion exchanger, (manufactured by Amersham), and eluted and purified with a linear concentration gradient of NaCl. Each of the fractions containing LOX-1 obtained above was reduced in a buffer containing excess amount of DTT (dithiothreitol), and then intramolecular S-S bonds were unwinded by a redox system using a mixture of oxidized […] low molecular thiol compounds. Each LOX-1 obtained above has a binding ability to the oxidized LDL and will be used as a LOX-1 standard for the following plate assays.
The plate assay was carried out using MaxiSorp Immuno Plate (96-well type, manufactured by NUNC). Each LOX-1 purified above was prepared with a PBS buffer so as to be 5 μg/mL, and 100 μL of the solution was applied to each well. After leaving at 4° C. overnight, each well was washed with 400 μL of a PBS buffer twice (400 μL×2) and 300 μL of a PBS buffer containing 25% BlockAce (manufactured by Dainippon Sumitomo Pharma Co., Ltd.) was applied to each well. After leaving at 4° C. overnight, each well was washed with 400 μL of a PBS buffer twice (400 μL×2), a solution of ethyl pheophorbide a was prepared with a PBS buffer containing 1% bovine serum albumin (BSA) so as to have an appropriate dilution rate, and 100 μL of the solution was applied to each well. After leaving at 4° C. overnight, each well was washed with 400 μL of a PBS buffer three times (400 μL×3), a solution of oxidized LDL was prepared with a PBS buffer so as to be 5 μg/mL, and 100 μL of the solution was applied to eachr well. After leaving at 4° C. overnight, each well was washed with 400 μL of a PBS buffer three times (400 μL×3), a horseradish peroxidase-conjugated anti-apolipoprotein B antibody (manufactured by The Binding Site) was diluted 1000 times with a PBS buffer, and 100 μL of the solution was applied to each well. After leaving at room temperature for 2 hours, each well was washed with 400 μL of a PBS buffer five times (400 μL×5), and 100 μL of a 3,3′,5,5′-tetramethylbenzidine (TMB) peroxidase-enzyme immunoassay (EIA)-substrate-kit reagent (manufactured by Bio-Rad) was applied to each well. After an appropriate reaction period, 50 μL of 2M H2SO4 was applied to each well to stop the reaction. Finally, a LOX-1 antagonist activity (an oxidized LDL binding inhibition rate to LOX-1) was determined by detection at 450 nm.

Sequence of bLOX-1 (P79391 57-270 limits assumed): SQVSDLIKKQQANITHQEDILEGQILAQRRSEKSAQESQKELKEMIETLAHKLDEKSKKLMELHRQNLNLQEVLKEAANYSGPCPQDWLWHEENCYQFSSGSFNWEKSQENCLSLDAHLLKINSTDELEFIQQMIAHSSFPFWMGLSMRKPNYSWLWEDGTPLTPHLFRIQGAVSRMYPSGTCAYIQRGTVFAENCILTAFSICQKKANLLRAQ

**Q.** `C=Cc1c(C)c2cc3nc(c4c5[nH]c(cc6nc(cc1[nH]2)C(C)=C6CC)c(C)c5C(=O)[C@@H]4C(=O)OC)[C@@H](CCC(=O)O)[C@@H]3C` [pheophorbide a] was tested. Which pIC50 (concentration dependence, FIG. 2) did it give?
**A.** ~7.00

**Q.** And the “inhibition activity on binding of oxidized LDL to bLOX-1 (ranking among actives)” value (final concentration of 16 μM, FIG. 1)?
**A.** high inhibition activities

**Q.** What about the “binding rate of oxidized LDL to bLOX-1 (inhibition of binding)” value (final concentration of 16 μM, FIG. 1, control without compounds = 100) of the same compound?
**A.** inhibit the binding significantly
